Reference: patent US6414138B1, “Process for producing mixtures rich in 1,6-GPS or 1,1-GPM” (Sudzucker Aktiengesellschaft, priority 1997, dated 2002)

Test: Solubility of 1,1-GPM and 1,6-GPS in water / aqueous suspension
Type: physicochemical
Settings: seed crystals mixed into concentrated aqueous solution of hydrogenated isomaltulose, about 50-65° C.
Method: Since the solubility equilibrium is temperature-dependent, the concentration ratio of the two components can advantageously be preset. After the solubility equilibrium is adjusted, the 1,1-GPM and 1,6-GPS concentration in the products can be controlled by setting the rate for the temperature change.
In another preferred embodiment of the invention, a suspension which is formed by the addition of, for example, crystalline hydrogenated isomaltulose in water, is heated to, for example, 85° C. to completely dissolve the solute, whereafter the cooling step to crystallize the solution is combined with a seeding step. The seeding step, however, is not essential. Advantageously, powdered hydrogenated isomaltulose in crystalline form or in the form of a suspension can be used. Most advantageously, the suspension is formed in water or in an organic solvent, such as isopropanol, and a food-compatible dispersing agent acting as a solvent can be added, if necessary. […]
The two constituents of hydrogenated isomaltulose, i.e. 1,1-GPM and 1,6-GPS, have a different solubility in aqueous solutions (FIG. 4). […] The 1,1-GPM component, which crystallizes more readily, is concentrated in the solid fraction of the suspension, whereas the 1,6-GPS component, which crystallizes less readily, goes preferentially into solution. […]

| SMILES | solubility (in words) |
| --- | --- |
| OC[C@H](O)[C@@H](O)[C@H](O)[C@H](O)CO[C@H]1O[C@H](CO)[C@@H](O)[C@H](O)[C@H]1O [1,6-GPS, 6-0-α-D-Glucopyranosyl-D-sorbite] | readily soluble |
| OC[C@@H](O)[C@@H](O)[C@H](O)[C@H](O)CO[C@H]1O[C@H](CO)[C@@H](O)[C@H](O)[C@H]1O [1,1-GPM, 1-0-α-D-Glucopyranosyl-D-mannite] | only slightly soluble |
